In paper PMC10580319, “Quantitative Imaging of the Action of vCPP2319, an Antimicrobial Peptide from a Viral Scaffold, against Staphylococcus aureus Biofilms of a Clinical Isolate” (ACS Infectious Diseases, 2023):
Where no end group is shown, it is not given here.

Columns and labels:
in vitro = in vitro ADME, human; settings: 37 °C
Protocol: vCPP2319 at final concentrations of 50, 100, 200, and 500 μM was incubated with 25% (v/v in H2O) human serum (Sigma-Aldrich) at 37 °C, with gentle swirling. At different time points (0, 1, 5, 10, 30, 60 120, 360, and 1440 min), 120 μL aliquots were taken and treated with 20 μL of 5% perchloric acid (v/v in H2O) for 30 min at 4 °C, to stop the proteolytic reaction. To determine the maximum peptide intensity (100% intact peptide; t0), serum proteins were first precipitated, followed by the addition of the peptide. Controls of serum without peptide and peptide not incubated in serum were also included in the assay. Samples were next centrifuged at 13 000g for 10 min to remove serum proteins. The supernatants were analyzed by reversed-phase HPLC (RP-HPLC) and LC–mass spectrometry (LC-MS). The percentage of intact peptide was calculated by RP-HPLC peak integration, expressed as percent of the amount at t0, and data were fitted to a monoexponential decay model using GraphPad Prism 7.0 to estimate the peptide half-life (t1/2). Analytical RP-HPLC was performed on a LC-20AD instrument (Shimadzu, Kyoto, Japan) equipped with a Luna C18 column (4.6 × 50 mm, 3 μm; Phenomenex, Torrance, CA, USA) using linear gradients of solvent B (0.036% (v/v) trifluoroacetic acid (TFA) in acetonitrile (ACN)) into A (0.045% (v/v) TFA in H2O) over 15 min, at a flow rate of 1 mL/min and UV detection at 220 nm. MS analysis was performed on an LC-MS 2010EV instrument (Shimadzu) fitted with an XBridge C18 column (4.6 mm × 150 mm, 3.5 μm, Waters, Cerdanyola del Valles, Spain), eluting with linear gradients of F (0.08% (v/v) formic acid [FA] in ACN) into E (0.1% (v/v) FA in H2O) over 15 min at 1 mL/min flow rate.[45]
1 - vCPP2319 stability in human serum
Figure S1 – vCPP2319 stability in human serum. Variable concentrations of the peptide were incubated with 25% (v/v in H2O) human serum for 0, 30, 60 and 120 min.
The intact peptide was separated from degradation products by HPLC using a 0 – 95% ACN gradient over 15 min. Afterwards, the percentage of intact peptide (Figure 1C) was calculated by chromatograms peak integration.
(1 picture or pasted object on this page, not shown here)

[1] = tested on: S. aureus clinical isolate biofilms; assay: Colony count assay on 24 h-preformed biofilms; type: cell-based, Staphylococcus aureus; settings: mean ± SD
Protocol: (§1) The effect of vCPP2319 on 24 h-preformed S. aureus biofilms was evaluated using three distinct methods, as previously described:[24] the metabolic activity and viability of biofilm-embedded cells was determined using a resazurin reduction fluorometric assay and a colony count assay, respectively. The total biofilm biomass was quantified by using a crystal violet assay.
(§2) S. aureus suspensions at 1 × 10^6 CFU/mL were incubated in a sterile 96-well microtiter clear flat-bottomed polystyrene plate (Corning) for 24 h at 37 °C. Nonadherent bacteria were removed after a washing step with MHB, and preformed biofilms were incubated in the absence or presence of vCPP2319 at 25 or 50 μM, for 4 h at 37 °C. Untreated biofilms were used as a control. To evaluate the effect of vCPP2319 redosing on biofilm-embedded bacteria, 24 h-preformed biofilms were incubated in the absence or presence of vCPP2319 at 25 μM, for 4 h at 37 °C. After a washing step with MHB, biofilms were further incubated in the absence or presence of an additional dose of vCPP2319 at 25 or 50 μM, for 4 h at 37 °C. In both experimental settings, after two washing steps with PBS, the biofilms were resuspended in PBS, followed by cell scrapping with a pipet tip as described elsewhere.[49],[50] […] After incubation, the biofilms were removed by cell scrapping with a pipet tip as described elsewhere.[49],[50] In all experimental settings, aliquots were vortexed at high speed, serially diluted in PBS and plated on nutrient-rich trypcase soy agar (TSA) plates (bioMérieux, Marcy l’Etoile, France). After incubation for 24 h at 37 °C, bacterial colonies were counted, and viable bacteria (in CFU/mL) were reported as percentage of the control.

[2] = tested on: S. aureus ATCC 6538 biofilms; assay: Colony count assay on 24 h-preformed biofilms; type: cell-based, Staphylococcus aureus; settings: 25 or 50 μM, 4 h, colony count (Figure 2C)
Protocol: as §1, §2

HMEC-1 cells = assay: Cytotoxicity, CellTiter-Blue cell viability assay; type: cell-based, human; settings: 24 h incubation
Protocol: Human dermal microvascular endothelium cells (HMEC-1, ATCC CRL-3243) (ATCC, Manassas, VA, USA) were cultured as a monolayer using MCDB-131 medium (without L-glutamine) with phenol red (Gibco, Thermo-Fisher, Waltham, MA, USA). The medium was supplemented with 10% (v/v) fetal bovine serum (FBS), 1% (v/v) penicillin/streptomycin (Gibco, Thermo-Fisher), 10 ng/mL epidermal growth factor (EGF), 1 μg/mL hydrocortisone (Sigma-Aldrich, St. Louis, MO, USA), and 10 mM glutamine (ATCC), according to the manufacturer’s instructions. Cells were grown in a humidified atmosphere of 5% CO2 at 37 °C. The cytotoxicity of vCPP2319 toward HMEC-1 cells was determined using CellTiter-Blue Cell Viability Assay (Promega, USA), according to the manufacturer’s instructions. HMEC-1 cells were seeded into a sterile 96-well clear flat-bottomed polystyrene plate (Corning) at 2.5 × 10^4 cells/well and incubated for 24 h at 37 °C. After medium removal, cells were washed twice with PBS. […] The fluorescence intensity was measured with excitation and emission at 560 and 590 nm, respectively, using the infinite M200 microplate reader (Tecan). […] HMEC-1 cells metabolic activity (%) was determined using the following equation: [drawing 2] 2 where FP is the fluorescence intensity of peptide-treated cells, FNC is the fluorescence intensity of negative controls, and FPC is the fluorescence intensity of positive controls. […]

## WRRRYRRWRRRRRWRRRPRR-NH2 [vCPP2319]
In vitro; 50 μM peptide, 25% (v/v in H2O) human serum, RP-HPLC peak integration, monoexponential decay fit, 95% CI 139–401, read-out: half-life (t1/2) in human serum
  half-life at 50 μM: 3.45 h
In vitro; 100 μM peptide, 25% (v/v in H2O) human serum, RP-HPLC peak integration, monoexponential decay fit, 95% CI 234–542, read-out: half-life (t1/2) in human serum
  half-life at 100 μM: 5.43 h
In vitro; 200 μM peptide, 25% (v/v in H2O) human serum, RP-HPLC peak integration, monoexponential decay fit, 95% CI 327–490, read-out: half-life (t1/2) in human serum
  half-life at 200 μM: 6.53 h
In vitro; 500 μM peptide, 25% (v/v in H2O) human serum, RP-HPLC peak integration, monoexponential decay fit, 95% CI 368–2107, read-out: half-life (t1/2) in human serum
  half-life at 500 μM: 10.4 h
In vitro; after 1 h incubation, all concentrations studied (50, 100, 200, 500 μM), 25% (v/v) human serum, RP-HPLC, read-out: intact peptide remaining
  remaining at 1 h: > 60%
[1]; 25 μM for 4 h, then second treatment at 25 μM for 4 h
  percentage of viable cells: 27.6 ± 13.6%
[1]; 25 μM for 4 h, then second treatment at 50 μM for 4 h
  percentage of viable cells: 9.4 ± 4.7%
[1]; first treatment 25 μM for 4 h, relative to untreated biofilm
  percentage of viable cells: 44.7 ± 4.3%
[2]
  viability of biofilm-embedded cells: decreased bacterial viability
HMEC-1 cells; 50 μM, highest concentration tested
  effect on metabolic activity of HMEC-1 cells: slight effect
HMEC-1 cells; concentrations of up to 25 μM
  effect on metabolic activity of HMEC-1 cells: no effect
